Laboratory results taken from patent US8273340B2, “Methods and compositions for attracting or repelling cockroaches” (The United States of America, as represented by the …, priority 2008, dated 2012).
Marks after values point to notes of the source that are not given here.

Legend:
[1] = test system: Male cockroaches (Blattela germanica); experiment: Y-tube olfactometer bioassay, test compound in mineral oil on filter paper; format: in vivo; conditions: for Percent Response: 0.5% w/v solution in mineral oil, mean of 3 replicates, 65% or more = significantly attractive (*), 35% or less = significantly repellent (**)
Excerpt: The German cockroach (Blattela germanica) is one of the most difficult cockroach species to control in homes and was used to illustrate the invention. […] Since the cockroaches never contact the test sample, their response is strictly to the molecules in the air stream.
Olfactometer Bioassay: The Y-tube bioassay apparatus was similar to that described by Vander Meer et al. (J. Chem. Ecol., 14: 825-838 (1988)). Compressed air (breathing-air quality) was passed into the two choice arms at 0.2 l/min for a total flow of 0.4 l/min. Flow rates were adjusted and controlled by two flow meters (Omega Engineering, Inc.). All tubing carrying the air was either copper or Teflon. Prior to evaluating treatment samples, a positive standard was put through the bioassay procedure. […] Test samples (10.0 μl) and the solvent blank (mineral oil, 10.0 μl) were applied to filter paper strips (0.3×1.0 cm, Whatman No. 1) and then each was placed into one of the two choice arms. Male cockroaches (Blattela germanica) were prepared for their introduction into the olfactometer by placing them in a Teflon tube (3 cm×0.8 cm) that had one end blocked with a piece of copper mesh screen. The open end of tube was closed with a lightly attached piece of tape. The cockroaches were introduced individually by removing the tape and quickly inserting the Teflon tube into the entrance arm of the olfactometer. […] The initial choice of the cockroach was recorded. The cockroach was removed and the process was repeated 10 times with the same test and blank samples. The 10 choices usually required less than 5 minutes to complete. After each set of 10 cockroaches had made their choice, the olfactometer was rinsed with acetone, dried, and reassembled for the next test. Each sample was retested with the same cockroaches, but with the sample and control in reverse positions. The sum of the results from the two tests represented one replicate. This procedure minimized bias inherent in the apparatus. A null hypothesis of equal numbers of cockroaches in each arm was tested with chi-square analysis. […] Results in-between were neutral.
The diameter of the Y part of the olfactometer provided a close fit for the cockroach, thus keeping it in the center of the walkway.

cockroach = experiment: Bioassays for cockroach attraction of attractants sorbed into thermoplastic polymers; format: in vivo
Excerpt: To alleviate the reactivity with the carrier polymers, we attempted to load active compounds into a series of thermoplastic polymers including urethanes and synthetic rubbers, based on the behavior of the active compounds as plasticizers. […] Propyl propanoate, methyl hexanoate, and methyl tiglate were loaded into a series of thermoplastic granulated feed materials, including 4-(1,1,3,3-tetramethylbutyl) with ethylene-5-ethylidenebicyclo[2.2.1]hept-2-ene-propene thermoplastic synthetic rubber (Santopren™ 203-40). Santoprene™ is a thermoplastic elastomer (TPE that is a mixture of in-situ cross linking of EPDM rubber and polypropylene compounds). Because of the longer life of Santopren™ in both extreme hot and cold environments, it is often preferred over the use of rubber. Pellethane™ 2102-55D is a polyester polycaprolactone polyurethane. Methyl hexanoate and methyl tiglate were sorbed using heat and pressure (60° C., 40 psi, 30 min) into the Santoprene® and were effective in bioassays for cockroach attraction. […] Loading rates of active compounds into the Santoprene®, using slightly elevated temperature (60° C.) and 40 psi pressure, were 8-12% by wt for the two compounds.

[2] = sorbed into Santoprene (60° C., 40 psi, 30 min)

| Compound | Percent Response [1] | percent of responding cockroaches attracted ([1]; three concentrations (0.25 to 0.75) in mineral oil, N=1, FIG. 8) | effect in bioassays for cockroach attraction (in words) (cockroach; loaded into Dow Pellethane) | effect in bioassays for cockroach attraction (in words) (cockroach; [2]) |
| --- | --- | --- | --- | --- |
| C/C=C(\C)C(=O)OC [methyl tiglate, methyl ester of tiglic acid (trans-2-methyl-2-butenoic acid (methyl tiglate))] | 80.0% | ≥ 65% | worked less well | effective |
| CCCOC(=O)CC [Propyl Propanoate] | 70.0* % |  | neither of these systems worked well | neither of these systems worked well |
